Results published in the NIST ThermoML archive (doi:10.1021/je060271a).

Settings: 283.15 K, Liquid, Vibrating tube method

CCCCCCCC(=O)OCC(COC(=O)CCCCCCC)(COC(=O)CCCCCCC)COC(=O)CCCCCCC [pentaerythritol tetraoctanoate]
Settings	mass density [kg/m3]
16618 kPa	979.5
16646 kPa	979.5
16674 kPa	979.5
16703 kPa	979.6
16736 kPa	979.5
16765 kPa	979.6
16794 kPa	979.5
16827 kPa	979.7
16856 kPa	979.7
16890 kPa	979.7
16919 kPa	979.7
16949 kPa	979.6
16980 kPa	979.7
17009 kPa	979.6
17039 kPa	979.7
17073 kPa	979.7
17102 kPa	979.7
17138 kPa	979.7
17168 kPa	979.9
17198 kPa	979.9
17227 kPa	979.7
17264 kPa	979.9
17293 kPa	979.9
17323 kPa	979.8
17360 kPa	979.9
17390 kPa	979.9
17427 kPa	979.9
17458 kPa	980
17488 kPa	980
17519 kPa	979.9
17556 kPa	980
17588 kPa	980
17619 kPa	980
17657 kPa	980
17688 kPa	980.1
17726 kPa	980.1
17758 kPa	980.1
17790 kPa	980.1
17823 kPa	980.2
17862 kPa	980.2
17894 kPa	980.2
17926 kPa	980.1
17966 kPa	980.2
17998 kPa	980.1
18037 kPa	980.2
18070 kPa	980.2
18103 kPa	980.3
18137 kPa	980.4
18177 kPa	980.3
18210 kPa	980.4
18244 kPa	980.4
18285 kPa	980.3
18319 kPa	980.3
18360 kPa	980.5
18394 kPa	980.4
18429 kPa	980.3
18470 kPa	980.4
18504 kPa	980.5
18539 kPa	980.6
18581 kPa	980.6
18616 kPa	980.6
18652 kPa	980.5
18694 kPa	980.6
18731 kPa	980.6
18766 kPa	980.8
18802 kPa	980.7
18846 kPa	980.7
18882 kPa	980.7
18919 kPa	980.7
18963 kPa	980.7
18999 kPa	980.8
19044 kPa	980.7
19081 kPa	980.7
19118 kPa	980.8
19155 kPa	980.8
19200 kPa	980.9
19238 kPa	980.9
19276 kPa	980.8
19320 kPa	980.9
19357 kPa	980.9
19394 kPa	980.9
19437 kPa	981
19472 kPa	980.9
19537 kPa	981
19587 kPa	981
19666 kPa	981.2
19710 kPa	981.2
19746 kPa	981.2
19773 kPa	981.1
19802 kPa	981.2
19829 kPa	981.2
19855 kPa	981.2
19888 kPa	981.2
19915 kPa	981.2
19942 kPa	981.4
19976 kPa	981.2
20003 kPa	981.3
20036 kPa	981.3
20064 kPa	981.4
20092 kPa	981.3
20120 kPa	981.4
20156 kPa	981.4
20180 kPa	981.4
20215 kPa	981.4
20244 kPa	981.3
20280 kPa	981.5
20310 kPa	981.5
20341 kPa	981.5
20376 kPa	981.5
20397 kPa	981.5
20414 kPa	981.5
20435 kPa	981.5
20452 kPa	981.6
20469 kPa	981.5
20490 kPa	981.5
20508 kPa	981.6
20525 kPa	981.6
20543 kPa	981.7
20563 kPa	981.5
20581 kPa	981.4
20598 kPa	981.6
20619 kPa	981.6
20637 kPa	981.5
20658 kPa	981.6
20676 kPa	981.7
20694 kPa	981.6
20715 kPa	981.7
20733 kPa	981.6
20751 kPa	981.7
20769 kPa	981.6
20790 kPa	981.8
20808 kPa	981.7
20830 kPa	981.8
20848 kPa	981.6
20866 kPa	981.7
20884 kPa	981.7
20905 kPa	981.7
20923 kPa	981.9
20942 kPa	981.7
20964 kPa	981.8
20982 kPa	981.9
21004 kPa	981.8
21022 kPa	981.9
21040 kPa	981.9
21059 kPa	981.9
21081 kPa	981.8
21099 kPa	981.9
21118 kPa	982
21140 kPa	981.8
21159 kPa	982
21181 kPa	982
21200 kPa	981.9
21219 kPa	981.9
21238 kPa	982
21258 kPa	981.8
21280 kPa	981.9
21299 kPa	982
21318 kPa	982
21341 kPa	982.1
21360 kPa	982
21379 kPa	982.1
21402 kPa	982.1
21421 kPa	982.1
21440 kPa	982
21460 kPa	982
21483 kPa	982
21502 kPa	982.1
21525 kPa	982.1
21545 kPa	982.1
21564 kPa	982.1
21584 kPa	982.1
21607 kPa	982.2
21626 kPa	982
21647 kPa	982.2
21670 kPa	982.1
21690 kPa	982.2
21710 kPa	982.1
21730 kPa	982
21755 kPa	982.2
21775 kPa	982.2
21795 kPa	982.3
21815 kPa	982.3
21839 kPa	982.3
21859 kPa	982.2
21879 kPa	982.2
21898 kPa	982.2
21922 kPa	982.3
21943 kPa	982.2
21963 kPa	982.3
21987 kPa	982.4
22008 kPa	982.4
22033 kPa	982.3
22054 kPa	982.4
22074 kPa	982.4
22094 kPa	982.3
22115 kPa	982.4
22140 kPa	982.4
22160 kPa	982.5
22185 kPa	982.5
22205 kPa	982.4
22226 kPa	982.4
22251 kPa	982.5
22271 kPa	982.4
22292 kPa	982.4
22318 kPa	982.5
22339 kPa	982.5
22360 kPa	982.5
22382 kPa	982.4
22407 kPa	982.7
22428 kPa	982.6
22453 kPa	982.7
22474 kPa	982.6
22496 kPa	982.5
22517 kPa	982.5
22543 kPa	982.6
22564 kPa	982.6
22586 kPa	982.4
22612 kPa	982.6
22634 kPa	982.6
22655 kPa	982.6
22681 kPa	982.8
22703 kPa	982.7
22725 kPa	982.7
22822 kPa	982.8
22844 kPa	982.8
22866 kPa	982.8
22889 kPa	982.8
22916 kPa	982.7
22938 kPa	982.9
22961 kPa	982.8
22987 kPa	982.8
23010 kPa	982.8
23032 kPa	982.9
23059 kPa	982.8
23082 kPa	982.9
23104 kPa	982.8
23132 kPa	983
23154 kPa	982.9
23177 kPa	982.9
23204 kPa	982.9
23227 kPa	982.9
23250 kPa	983
23278 kPa	983
23301 kPa	982.9
23324 kPa	983
23348 kPa	982.9
23375 kPa	983.1
23398 kPa	983.1
23422 kPa	983.1
23450 kPa	983
23473 kPa	983
23497 kPa	983.1
23525 kPa	983.2
23549 kPa	983.1
23573 kPa	983.2
23597 kPa	983.1
23625 kPa	983.2
23649 kPa	983.1
23672 kPa	983.2
23701 kPa	983.3
23725 kPa	983.2
23753 kPa	983.2
23777 kPa	983.1
23801 kPa	983.2
23831 kPa	983.2
23857 kPa	983.3
23881 kPa	983.3
23905 kPa	983.4
23934 kPa	983.2
23959 kPa	983.3
23983 kPa	983.4
24008 kPa	983.3
24038 kPa	983.2
24062 kPa	983.4
24087 kPa	983.3
24117 kPa	983.4
24142 kPa	983.3
24168 kPa	983.5
24194 kPa	983.5
24219 kPa	983.5
24248 kPa	983.5
24273 kPa	983.5
24304 kPa	983.4
24329 kPa	983.6
24354 kPa	983.5
24385 kPa	983.5
24410 kPa	983.5
24436 kPa	983.5
24466 kPa	983.6
24492 kPa	983.7
24518 kPa	983.6
24544 kPa	983.7
24576 kPa	983.6
24601 kPa	983.7
24632 kPa	983.6
